In patent publication US20160349268A1, “STEPWISE ASSEMBLED CAPTURE COMPOUNDS COMPRISING A CLEAVABLE FUNCTION AND METHOD FOR ISOLATING AND/OR CHARACTERIZING BIOMOLECULES OR BIOMOLECULE FRAGMENTS, IN PARTICULAR PROTEINS OR PROTEIN FRAGMENTS, OF COMPLEX MIXTURES” (CAPROTEC BIOANALYTICS GMBH, priority 2014, published 2016):

Key:
Format in all cases: physicochemical
[1] = Cleavage of 1 (CPT600) after photo-reaction in solution (UV irradiation, HCl treatment, RP-HPLC UV/MS); details: BPC + All MS
Experimental: In a 100 μL PCR tube, 20 μL 73 μM 1 (CPT600) was irradiated at 4° C. for 5 min in the caproBox (310 nm version, caprotec bioanalytics GmbH, Berlin, Germany). 1.7 μL 37% HCl was added, mixed and the solution was incubated on a thermoshaker at 37° C. for 2 h. Then 100 μL Milli-Q water and 9 μL 2N NaOH were added and mixed. The resulting solution as analyzed by RP-HPLC coupled to a UV detector and a mass spectrometer (FIG. 6 and Table 2a) as described in example 1. As a control, the same sample but with only very brief incubation under acidic conditions (r.t. for about 10 s instead of 37° C. for 2 h) was prepared (FIG. 7 and Table 2b).

[2] = Cleavage of 1 (CPT600) after photo-reaction on CPG-pN3, with CPG-Ac and in-solution controls; set-up: Area: unit not given here
Experimental: 20 μL 10 mg/mL 1 (CPT600)-loaded CPG-pN3 from example 1 were transferred into a 100 μL PCR tube, centrifuged, the supernatant was discarded and 20 μL in water was added. The suspension was irradiated at 4° C. for 5 min (with re-suspending every 30 s) in the caproBox (310 nm version, caprotec bioanalytics GmbH, Berlin, Germany). 1.7 μL 37% HCl was added, mixed and the solution was incubated on a thermoshaker at 37° C. for 2 h. Then 100 μL Milli-Q water and 9 μL 2N NaOH were added and mixed. After centrifugation, the resulting supernatant was analyzed by RP-HPLC coupled to a UV detector and a mass spectrometer as described in example 1. As a control, the same sample but with only very brief incubation under acidic conditions (r.t. for about 10 s instead of 37° C. for 2 h) was prepared.
Further controls included using 1 (CPT600)-treated CPG-Ac from example 1 (short and long acid treatment) instead of 1 (CPT600)-loaded CPG-pN3 and 1 (CPT600) in solution (short and long acid treatment) as described in example 2. All six experiments were performed side-by-side.

[3] = Cleavage reaction of photo-reacted compound 11 (12) with HCl / 2-nitrobenzhydrazide, LC-MS; details: for Area/a.u. (LC-MS EIC peak): 45 μM 12, 1 h room temperature
Experimental: A solution of 75 μL 56 μM 11 (CPT727, Capture Compound bearing tetrazine as sorting function and a chemically cleavable photo-reactivity function) in 50% acetonitrile was irradiated with UV light (λmax=310 nm) for 5 min at 4° C. in the caproBox to activate the reactivity function yielding 12 (Scheme 12).
Cleavage of the photo-reacted reactivity function (15) from 12 yielding also 17 as a product (Scheme 13) was investigated under several conditions summarized in Table 5. The reaction was performed in a final volume of 10 μl for 1 h at room temperature. Each reaction mixture contained 8 μl of the above described solution of 12 (45 μM final concentration), 1 μl 100 mM or 10 mM 2-nitrobenzhydrazide in DMSO or just DMSO and 1 μl 100 mM or 10 mM HCl in water or just water. Analysis was performed by LC-MS. Integration of peak areas corresponding to the respective species is included into Table 5.

[4] = 1 (CPT600) after UV irradiation and HCl 37 °C 2 h
[5] = In solution, 0 h HCl, BPC + All MS
[6] = In solution, 0 h HCl, UV 254 nm
[7] = CPG-Ac instead of CPG-pN3, 2 h acidic treatment
[8] = In solution, 2 h HCl, UV 254 nm
[9] = In solution, 2 h HCl, BPC + All MS
[10] = On CPG-Ac, 2 h HCl, BPC + All MS
[11] = On CPG-pN3, 2 h HCl, BPC + All MS
[12] = c(HCl) 0 mM, c(2-nitrobenzhydrazide) 0 mM
[13] = c(HCl) 0 mM, c(2-nitrobenzhydrazide) 1 mM
[14] = c(HCl) 0 mM, c(2-nitrobenzhydrazide) 10 mM
[15] = c(HCl) 1 mM, c(2-nitrobenzhydrazide) 0 mM
[16] = c(HCl) 1 mM, c(2-nitrobenzhydrazide) 1 mM
[17] = c(HCl) 1 mM, c(2-nitrobenzhydrazide) 10 mM
[18] = c(HCl) 10 mM, c(2-nitrobenzhydrazide) 0 mM
[19] = c(HCl) 10 mM, c(2-nitrobenzhydrazide) 1 mM
[20] = c(HCl) 10 mM, c(2-nitrobenzhydrazide) 10 mM

C#CCNC(=O)C1(C(=O)NCCCC[C@@H](C(=O)NCCc2ccc(NC(=O)CCCCCCC(=O)O)cc2)[N+](C)(C)C)COC(c2ccc(C3(C(F)(F)F)N=N3)cc2)OC1 (stereo partly shown) [Compound 2]
Area (MS-peak integration) [1, 4]: 167125312
Area Frac. % [1, 4]: 2.52%

C#CCNC(=O)C1(C(=O)NCCCC[C@@H](C(=O)NCCc2ccc(NC(=O)CCCCCCC(=O)NO)cc2)[N+](C)(C)C)COC(c2ccc(C(O)C(F)(F)F)cc2)OC1 (stereo partly shown) [Compound 3]
Area (MS-peak integration) [1, 4]: 432395200
Area Frac. % [1, 4]: 6.52%
Area (MS-peak integration) ([1]; 1 (CPT600) after UV irradiation, very brief acid (r.t. about 10 s, control)): 3091667200
Area [2, 5]: 2114062848
Area Frac % [2, 5]: 100.00%
Area [2, 6]: 31.679
Area Frac % [2, 6]: 100.00%

C#CCNC(=O)C1(C(=O)NCCCC[C@@H](C(=O)NCCc2ccc(NC(=O)CCCCCCC(=O)O)cc2)[N+](C)(C)C)COC(c2ccc(C(O)C(F)(F)F)cc2)OC1 (stereo partly shown) [Compound 4]
Area (MS-peak integration) [1, 4]: 386267200
Area Frac. % [1, 4]: 5.82%

O=Cc1ccc(C(O)C(F)(F)F)cc1 (stereo not shown) [Compound 6]
amount of cleavage fragment relative to the respective CPG-pN3 sample (UV peak areas) [2, 7]: 8.0%
amount of cleavage fragment relative to the respective sample in solution (UV peak areas) [2, 7]: 3.9%
Area [2, 8]: 63.355
Area Frac % [2, 8]: 55.35%
Area ([2]; On CPG-Ac, 2 h HCl, UV 254 nm): 2.4903
Area Frac % ([2]; On CPG-Ac, 2 h HCl, UV 254 nm): 30.94%
Area ([2]; On CPG-pN3, 2 h HCl, UV 254 nm): 30.9728
Area Frac % ([2]; On CPG-pN3, 2 h HCl, UV 254 nm): 85.18%
amount of cleavage fragment relative to the respective sample in solution (UV peak areas) ([2]; UV-irradiated 1 (CPT600)-loaded CPG-pN3, 2 h acidic treatment): 48.9%

C#CCNC(=O)C(CO)(CO)C(=O)NCCCC[C@@H](C(=O)NCCc1ccc(NC(=O)CCCCCCC(=O)O)cc1)[N+](C)(C)C [Compound 7]
Area (MS-peak integration) [1, 4]: 1798498944
Area Frac. % [1, 4]: 27.10%
amount in supernatant of CPG bead samples compared to solution sample (base peak MS peak areas) ([2]; 2 h acidic treatment): 16.1%
Area [2, 9]: 1793367808
Area Frac % [2, 9]: 35.46%
Area [2, 8]: 15.084
Area Frac % [2, 8]: 13.18%
Area [2, 10]: 114680936
Area Frac % [2, 10]: 41.23%
Area [2, 11]: 288188416
Area Frac % [2, 11]: 65.33%

Cc1nnc(-c2ccc(CN(CC(=O)NCCCCNc3ncnc4c3ncn4C3OC(CSCC[C@H](N)C(=O)O)C(O)C3O)C(=O)CC/C=N/N(C)C(=O)c3ccc(C(O)C(F)(F)F)cc3)cc2)nn1 (stereo partly shown) [Compound 12]
fraction cleaved ([3]; 1 mM or higher concentration of HCl alone, room temperature, within 1 h): more than 60%
detection of starting material ([3]; 10 mM HCl and 1 mM or 10 mM 2-nitrobenzhydrazide): no longer detected
Area/a.u. (LC-MS EIC peak) [3, 12]: 865231808 a.u.
Area/a.u. (LC-MS EIC peak) [3, 13]: 601044672 a.u.
Area/a.u. (LC-MS EIC peak) [3, 14]: 616590720 a.u.
Area/a.u. (LC-MS EIC peak) [3, 15]: 315121856 a.u.
Area/a.u. (LC-MS EIC peak) [3, 16]: 130056936 a.u.
Area/a.u. (LC-MS EIC peak) [3, 17]: 5361744 a.u.
Area/a.u. (LC-MS EIC peak) [3, 18]: 17781000 a.u.

CN(N)C(=O)c1ccc(C(O)C(F)(F)F)cc1 (stereo not shown) [Compound 15]
Area/a.u. (LC-MS EIC peak) [3, 12]: 15540301 a.u.
Area/a.u. (LC-MS EIC peak) [3, 13]: 19033696 a.u.
Area/a.u. (LC-MS EIC peak) [3, 14]: 20155070 a.u.
Area/a.u. (LC-MS EIC peak) [3, 15]: 75526584 a.u.
Area/a.u. (LC-MS EIC peak) [3, 16]: 93782304 a.u.
Area/a.u. (LC-MS EIC peak) [3, 17]: 120971320 a.u.
Area/a.u. (LC-MS EIC peak) [3, 18]: 101335752 a.u.
Area/a.u. (LC-MS EIC peak) [3, 19]: 119463976 a.u.
Area/a.u. (LC-MS EIC peak) [3, 20]: 130339744 a.u.

Cc1nnc(-c2ccc(CN(CC(=O)NCCCCNc3ncnc4c3ncn4C3OC(CSCC[C@H](N)C(=O)O)C(O)C3O)C(=O)CC/C=N/NC(=O)c3ccccc3[N+](=O)[O-])cc2)nn1 (stereo partly shown) [Compound 17]
Area/a.u. (LC-MS EIC peak) [3, 13]: 50293356 a.u.
Area/a.u. (LC-MS EIC peak) [3, 14]: 116403456 a.u.
Area/a.u. (LC-MS EIC peak) [3, 16]: 623734464 a.u.
Area/a.u. (LC-MS EIC peak) [3, 17]: 1157550976 a.u.
Area/a.u. (LC-MS EIC peak) [3, 19]: 694334592 a.u.
Area/a.u. (LC-MS EIC peak) [3, 20]: 1188207104 a.u.
